Results on one substance are retold here after patent US5443827A, “Fibrin-targeted inhibitors of thrombin” (President and Fellows of Harvard College, priority 1993, dated 1995).

In data set [1] the target is T1, thrombin (Homo sapiens, UniProt P00734). In words: Fibrin-Sepharose assay (thrombin inhibition as a function of binding to immobilized fibrin). Particulars: 800 units applied. Type of data set: biochemical. How it is done:
This assay is as described by Bode et al., J. Biol. Chem. 262:10819-10823, 1987, herein incorporated by reference, with the following modifications. For the purposes of assaying targeted anti-thrombin activity, trace labeling of fibrin-monomer is not necessary. 200 μl fibrin-Sepharose were incubated for 2.5 h at room temperature with defined amounts (by the S-2238 assay) of hirudin or hirudin-59D8-conjugate (hirudin-59D8-IgG or, alternatively, hirudin-59D8-Fab') in 100 μl of buffer. After washing the fibrin-Sepharose three times with 3 ml 0.15M NaCl, 200 μl S-2238 assay buffer and 40 μl (0.05 U) thrombin solution (1.25 U/ml) were added and incubated for 1 h at room temperature. Subsequently 100 μl of chromogenic substrate S-2238 were added, and the reaction was stopped after 25 min by addition of 100 μl 20% acetic acid. After centrifugation (5 min, 1,000×g), absorption of the supernatant was read at 405 nm. Hirudin activity was again detected as inhibition of thrombin activity and was expressed as % of total thrombin activity applied. […]

Data set [2] addresses T1, thrombin. Conditions: r-Hirudin as obtained from Knoll AG; cited from earlier work.
For data set [3], the system named is fibrin deposition on the surface of a clot suspended in human plasma. In words: Inhibition of thrombus growth in human plasma. Type of data set: biochemical. How it is done: The method of Runge (Runge et al., Biochemistry 27:1153-1157, 1988, herein incorporated by reference) was followed, with the following modifications. Fresh-frozen plasma obtained from 5 donors was pooled, aliquoted and refrozen. Before each experiment, plasma was ultracentrifuged at 30,000 rpm for 60 min in a Beckmann SW 40 rotor in order to obtain platelet-free plasma (platelet count less than 1,000 platelets/μl). Immediately before each experiment, the anti-thrombin activities of hirudin and hirudin conjugate were calibrated using the S-2238 assay (i.e., the inhibition of thrombin peptidase activity by hirudin and its conjugates was determined, and appropriate dilutions were made so that the inhibition of thrombin peptidase activity was identical for each sample). Platelet-free plasma clots were made by adding to plasma, in the following sequence: ^125 I-labelled human fibrinogen (20,000 cpm/ml plasma), 0.5M CaCl2 (final concentration 0.05M) and thrombin (0.5 NIH units/ml plasma). Immediately after the addition of thrombin, the solution was drawn into silastic tubing (i.d. 4 mm) and allowed to clot for 2 h at 37 ° C. The tubing was then cut into 1.8 cm sections yielding clots of approximately 0.2 ml. The clots were removed from the tubing, and each was placed in a plastic vial and washed three times with 2 ml 0.15M NaCl. The radioactivity level of each was then determined and only clots within 5% of the mean value were used for experiments.
After counting, clots were resuspended in 100 μl TBS (0.1M Tris, 0.1M NaCl, pH 7.4). Experiments were initiated by the addition of 100 μl hirudin or conjugate solution containing defined amounts of anti-thrombin activity. […] At predetermined intervals, clots were removed from the test tube, washed three times with 2 ml 0.15M NaCl and assayed for radioactivity. Clots incubated without thrombin inhibitor (NaCl-controls) often could not be quantitatively removed from the incubation vial because of complete clotting of the assay mixture. […]

The subject of data set [4] is fibrin formation on the surface of a plasma clot. In words: Inhibition of thrombus growth in a fibrinogen solution. Type of data set: biochemical, human. Conditions: for 3 h; FIG. 4A. How it is done: The method of Runge (Runge et al., Biochemistry 27:1153-1157, 1988, herein incorporated by reference) was followed, with the following modifications. Fresh-frozen plasma obtained from 5 donors was pooled, aliquoted and refrozen. Before each experiment, plasma was ultracentrifuged at 30,000 rpm for 60 min in a Beckmann SW 40 rotor in order to obtain platelet-free plasma (platelet count less than 1,000 platelets/μl). Immediately before each experiment, the anti-thrombin activities of hirudin and hirudin conjugate were calibrated using the S-2238 assay (i.e., the inhibition of thrombin peptidase activity by hirudin and its conjugates was determined, and appropriate dilutions were made so that the inhibition of thrombin peptidase activity was identical for each sample). […] The radioactivity level of each was then determined and only clots within 5% of the mean value were used for experiments.
After counting, clots were resuspended in 100 μl TBS (0.1M Tris, 0.1M NaCl, pH 7.4). […] At predetermined intervals, clots were removed from the test tube, washed three times with 2 ml 0.15M NaCl and assayed for radioactivity. Clots incubated without thrombin inhibitor (NaCl-controls) often could not be quantitatively removed from the incubation vial because of complete clotting of the assay mixture. […]

The target of data set [5] is T1, thrombin. In words: β-Peptide assay (thrombin inhibition as a function of binding to immobilized β-peptide). Type of data set: biochemical. Particulars: fitted parameter ± SD. Here is the method: 96-well microtiter plates were coated overnight at 4° C. with β-peptide. 100 μl coating buffer (20 mM Tris, 50 mMNaCl, 1 mM CaCl2, 1 mM MgC2, pH 7.4) containing 0.005 mg β-peptide were applied to each well. After coating, the microtiter plate was first washed 5 times with coating buffer supplemented with 0.05% Tween 20 and then three times with water. Free binding sites were blocked overnight at 4° C. by the addition of 250 μl bovine serum albumin (2% w/v in coating buffer) per well. […]
After washing 7 times with modified coating buffer (20 mM Tris, 0.5 M NaCl2, 1 mM CaCl2, 1 mM MgCl2, 0.2% Tween 20, pH 7.4) and three times with water, 100 μl of assay buffer (20 mMNaHPO4, 0.15M NaCl, 0.1% BSA, pH 7.4) were applied per well and 20 μl (1.25 U/ml) of thrombin solution were allowed to incubate for 1 h at room temperature. Then 50 μl of chromogenic substrate (S-2238 at 0.83 mg/ml) were applied and after 20 minutes, the reaction was stopped by addition of 50 μl of 20% acetic acid, and the resulting absorption read at 405 nm. Hirudin activity was detected as inhibition of thrombin activity and was expressed as % inhibition of total thrombin activity applied. […]

As for hirudin, at thrombin [1], the thrombin inhibition amounted to 32.3%. In addition, the specific activity with thrombin [2] is 17,000 anti-thrombin units (ATU)/mg. Also, the “fibrin deposition lower than NaCl control” value in data set [3] (at 10 ATU/ml, FIG. 6A) worked out at 17 µg; in data set [3] (at 100 ATU/ml, p=0.0001), 112 µg. For the same substance, the “fibrin deposition compared with the mixture at 9 ATU/ml” value in data set [3] (hirudin at 44 ATU/ml, p=0,003, FIG. 7) is listed as “lower”. In addition, in data set [4], the “concentration giving complete inhibition of fibrin formation” value came out at 80 ATU/ml. Also, at thrombin [5] (FIG. 2A), the “B1, ultimate thrombin inhibition” value is listed as 4.3±0.5%. Besides, the “ultimate inhibition (B1)” value at thrombin [5] (FIG. 2B) came to 0%.
